The numbers were not newly measured in patent publication US7276641B2, “External plaster containing 4-biphenylacetic acid” (Teikoku Seiyaku Co., Ltd., priority 2000, dated 2007), which cites them from elsewhere.

Each structure is given as a SMILES string. Where two headings read alike, the source gives them in different places.

For the compound `O=C(O)Cc1ccc(-c2ccccc2)cc1` [BPAA, 4-biphenylyl acetic acid], the solubility entry was “not more than 11%” (aqueous plaster with diisopropanolamine as solubilizer); “at most 7%” (crotamiton as solubilizer); “less soluble” (in acetone, ethanol, glacial acetic acid, and ether); “readily soluble” (in dimethylacetamide); “hardly soluble” (in polyols, glycols, and esters); “hardly soluble” (in water).
